This passage reports EC50 results from patent US7105513B2, “Acylated, heteroaryl-condensed cycloalkenylamines and their use as pharmaceuticals” (Sanofi-Avertis Deutschland GmbH, priority 2002, dated 2006).

Where a name gives a salt, the structure may show the parent alone.

The subject of this assay is eNOS promoter. As to the kind of experiment: Activation of eNOS transcription (eNOS promoter-luciferase reporter gene assay). The note with it: Homo sapiens, Endothelial cell, 18 h, human endothelial cell line stably transfected with eNOS promoter-firefly luciferase construct; 18 h incubation; EC50 determined graphically; read-out: EC50 of transcription induction ratio (TIR). In kind it is cell-based. The method, then:
Determination of Activation of eNOS Transcription
Activation of eNOS transcription was determined as described in detail in Li et al., “Activation of protein kinase C alpha and/or epsilon enhances transcription of the human endothelial nitric oxide synthase gene”, Mol. Pharmacol. 53 (1998) 630, the content of which is incorporated herein by reference.
Briefly, a 3.5 kB long fragment 5′ of the starting codon of the eNOS gene was cloned, sequenced and cloned in firefly luciferase expression plasmids to monitor activation of the eNOS promoter by reporter gene activity. A human endothelial cell line stable transfected and expressing this promoter-reporter construct was used for compound testing. Cells were incubated for 18 h with compounds.
All compounds were dissolved in sterile dimethyl sulfoxide (DMSO). A final concentration of 0.5% DMSO in complete medium was allowed. Induction of reporter gene expression in these cells was measured using a standard luciferase assay system (Promega, Cat. No E150) according to the manufacturer's instructions. Luciferase induction in cells incubated with compounds were compared to those incubated with solvent alone. The ratio of both activities (transcription induction ratio, TIR) was plotted as a function of compound concentration,. Typically, TIR values started at low concentrations at a ratio of 1, indicating no compound effect, and extended up to a maximum TIR value TIR(max) which indicates the increase of the eNOS transcription. EC50 values of transcription induction ratios as a function of compound concentration were determined graphically.
On the technique in general: Reporter assays use an easily measured gene product as a stand-in for the process of interest.
As to `Cc1ccc(C(=O)NC2Cc3cccnc3C2)c(C)n1` (single isomer, unassigned; enantiomer 1) [Example 5, N-(6,7-Dihydro-5H-[1]pyrindin-6-yl)-2,6-dimethylnicotinamide (enantiomer 1)], the EC50 stood at 3.3 µM.

For the molecule `COc1ccc(C(=O)NC2Cc3cccnc3C2)cn1` (single isomer, unassigned; enantiomer 1) [Example 6, N-(6,7-Dihydro-5H-[1]pyrindin-6-yl)-6-methoxynicotinamide (enantiomer 1)], the EC50 stood at 12 µM.

Regarding `Cc1nc2ccc(C(=O)NC3Cc4cccnc4C3)cc2[nH]1` (single isomer, unassigned; enantiomer 1) [Example 7, 2-Methyl-3H-benzimidazole-5-carboxylic acid (6,7-dihydro-5H-[1]pyrindin-6-yl)amide (enantiomer 1)], the EC50 is 23 µM.

On to `COCc1ccc(C(=O)NC2Cc3cccnc3C2)cn1` (single isomer, unassigned; enantiomer 1) [Example 8, N-(6,7-Dihydro-5H-[1]pyrindin-6-yl)-6-methoxymethyinicotinamide (enantiomer 1)], for which the EC50 was 30 µM.

In the case of `O=C(NC1Cc2cccnc2C1)c1ccc2c(c1)OC(F)(F)O2` (single isomer, unassigned; enantiomer 1) [Example 9, 2,2-Difluorobenzo[1,3]dioxole-5-carboxylic acid (6,7-dihydro-5H-[1]pyrindin-6-yl)amide (enantiomer 1), trifluoroacetic acid salt], the EC50 came to 0.93 µM.

Regarding `O=C(NC1Cc2cccnc2C1)c1ccc(Cl)cc1` (single isomer, unassigned; enantiomer 1) [Example 10, 4-Chloro-N-(6,7-dihydro-5H-[1]pyrindin-6-yl)benzamide (enantiomer 1), trifluoroacetic acid salt], the EC50 turned out to be 0.8 µM.

Regarding `Cc1ccc(C(=O)NC2CCCc3cccnc3C2)c(C)c1` (stereo not drawn) [Example 11, 2,4-Dimethyl-N-(6,7,8,9-tetrahydro-5H-cyclohepta[b]pyridin-8-yl)benzamide], the EC50 came to 0.064 µM.

As to `Cc1cnc(C(=O)NC2Cc3ccsc3C2)c(N)n1` (stereo not drawn) [Example 12, 3-Amino-5-methylpyrazine-2-carboxylic acid (5,6-dihydro4H-cyclopenta[b]thiophen-5-yl)amide], the EC50 stood at 11 µM.

On to `Cc1ccc(C(=O)NC2Cc3ccsc3C2)c(C)n1` (stereo not drawn) [Example 13, N-(5,6-Dihydro-4H-cyclopenta[b]thiophen-5-yl)-2,6-dimethylnicotinamide, trifluoroacetic acid salt], for which the EC50 worked out at 0.62 µM.

On to `COc1ccc(C(=O)NC2Cc3ccsc3C2)cn1` (stereo not drawn) [Example 14, N-(5,6-Dihydro-4 H-cyclopenta[b]thiophen-5-yl)-6-methoxynicotinamide], for which the EC50 amounted to 2.4 µM.

`Cc1nc2ccc(C(=O)NC3Cc4ccsc4C3)cc2[nH]1` (stereo not drawn) [Example 15, 2-Methyl-3H-benzimidazole-5-carboxylic acid (5,6-dihydro-4H-cyclopenta[b]thiophen-5-yl)amide, trifluoroacetic acid salt]: the EC50 is 3.1 µM.

For the molecule `Cc1c(C(=O)NC2Cc3ccsc3C2)cnn1-c1ccccc1` (stereo not drawn) [Example 16, 5-Methyl-1-phenyl-1H-pyrazole-4-carboxylic acid (5,6-dihydro-4H-cyclopenta[b]thiophen-5-yl)amide], the EC50 was 0.2 µM.

For `O=C(NC1Cc2ccsc2C1)c1cnn(-c2ccccc2)c1C(F)(F)F` (stereo not drawn) [Example 17, 1-Phenyl-5-trifluoromethyl-1H-pyrazole-4-carboxylic acid (5,6-dihydro-4H-cyclopenta[b]thiophen-5-yl)amide], the EC50 came to 0.35 µM.

Consider `Cc1cc(C(=O)NC2Cc3ccsc3C2)c(C)n1Cc1ccncc1` (stereo not drawn) [Example 18, 2,5-Dimethyl-1-pyridin-4-ylmethyl-1H-pyrrole-3-carboxylic acid (5,6-dihydro-4H-cyclopenta[b]thiophen-5-yl)amide, trifluoroacetic acid salt], for which the EC50 came to 3.3 µM.

Consider `Cc1nc(C)c(C(=O)NC2Cc3ccsc3C2)s1` (stereo not drawn) [Example 19, 2,4-Dimethylthiazole-5-carboxylic acid (5,6-dihydro-4H-cyclopenta[b]thiophen-5-yl)amide], for which the EC50 was found to be 20 µM.

With `Cc1nn(C)cc1C(=O)NC1Cc2ccsc2C1` (stereo not drawn) [Example 20, 1,3-Dimethyl-1H-pyrazole-4-carboxylic acid (5,6-dihydro-4H-cyclopenta[b]thiophen-5-yl)amide], the EC50 was 9.8 µM.

On to `Nc1ncccc1C(=O)NC1Cc2ccsc2C1` (stereo not drawn) [Example 21, 2-Amino-N-(5,6-dihydro-4H-cyclopenta[b]thiophen-5-yl)nicotinamide, trifluoroacetic acid salt], for which the EC50 was found to be 4.8 µM.

For the molecule `Cc1ccc(C(=O)NC2Cc3ccsc3C2)cn1` (stereo not drawn) [Example 22, N-(5,6-Dihydro-4H-cyclopenta[b]thiophen-5-yl)-6-methylnicotinamide, trifluoroacetic acid salt], the EC50 amounted to 1.6 µM.

For `Cc1ccc(C(=O)NC2Cc3ccsc3C2)c(Cl)n1` (stereo not drawn) [Example 23, 2-Chloro-N-(5,6-dihydro-4H-cyclopenta[b]thiophen-5-yl)-6-methylnicotinamide], the EC50 was determined as 0.8 µM.

Regarding `COCc1ccc(C(=O)NC2Cc3ccsc3C2)cn1` (stereo not drawn) [Example 24, N-(5,6-Dihydro4H-cyclopenta[b]thiophen-5-yl)-6-methoxymethylnicotinamide, trifluoroacetic acid salt], the EC50 was found to be 125 µM.

Take `Nc1nccnc1C(=O)NC1Cc2ccsc2C1` (stereo not drawn) [Example 25, 3-Aminopyrazine-2-carboxylic acid (5,6-dihydro-4H-cyclopenta[b]thiophen-5-yl)amide]: the EC50 was 18 µM.

Take `O=C(NC1Cc2ccsc2C1)c1cccc(Cl)c1Cl` (stereo not drawn) [Example 26, 2,3-Dichloro-N-(5,6-dihydro-4H-cyclopenta[b]thiophen-5-yl)benzamide]: the EC50 came out at 1.5 µM.

For `Cc1ccc(C(=O)NC2Cc3ccsc3C2)c(C)c1` (stereo not drawn) [Example 27, N-(5,6-Dihydro-4H-cyclopenta[b]thiophen-5-yl)-2,4-dimethylbenzamide], the EC50 was less than 0.1 µM.

Take `O=C(NC1Cc2ccsc2C1)c1ccc(F)cc1F` (stereo not drawn) [Example 28, N-(5,6-Dihydro-4H-cyclopenta[b]thiophen-5-yl)-2,4-difluorobenzamide]: the EC50 is 0.76 µM.

As for `CS(=O)(=O)Nc1cccc(C(=O)NC2Cc3ccsc3C2)c1` (stereo not drawn) [Example 29, N-(5,6-Dihydro-4H-cyclopenta[b]thiophen-5-yl)-3-methylsulfonylaminobenzamide], the EC50 amounted to 2.3 µM.

Take `O=C(NC1Cc2ccsc2C1)c1ccc(N2CCOCC2)nc1` (stereo not drawn) [Example 30, N-(5,6-Dihydro-4H-cyclopenta[b]thiophen-5-yl)-6-(morpholin-4-yl)nicotinamide, trifluoroacetic acid salt]: the EC50 stood at 11 µM.

As to `O=C(NC1Cc2ccsc2C1)c1cccc(N2CCOCC2)c1` (stereo not drawn) [Example 31, N-(5,6-Dihydro-4H-cyclopenta[b]thiophen-5-yl)-3-(morpholin-4-yl)benzamide], the EC50 came to 3.3 µM.
